In US10294202B2, “Pyrrolidinones as herbicides” (FMC Corporation, priority 2013, dated 2019):

What was measured:
[1] = system: pigweed; experiment: Test A pre-/postemergence herbicide test; type: in vivo, Amaranthus retroflexus
In short: (§1)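 Approximately 10 days after treatment in the greenhouse, plants were compared with untreated controls and given a 0–100 visual injury rating. Applications: preemergence directed soil spray; postemergence on 2–10 cm plants at the one- to two-leaf stage.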

[2] = system: ducksalad; experiment: Test C flooded paddy test; type: in vivo, Heteranthera limosa; conditions: Flood
In short: (§2)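 Plants at the 2-leaf stage in pots flooded to 3 cm were treated by applying compound directly to the paddy water, with depth held throughout. After 13 to 15 days in a greenhouse, response was rated visually against controls on a 0 (no effect) to 100 (complete control) scale.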

[3] = system: crabgrass, large; experiment: Test A pre-/postemergence herbicide test; type: in vivo, Digitaria sanguinalis
In short: as §1

[4] = system: giant foxtail; experiment: Test A pre-/postemergence herbicide test; type: in vivo, Setaria faberii
In short: as §1

[5] = system: barnyardgrass; experiment: Test B flooded paddy test; type: in vivo, Echinochloa crus-galli; conditions: 250 g ai/ha, Flood; scale of 0 to 100 where 0 is no effect and 100 is complete control
In short: (§3)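 Paddy-water application at a 3 cm flood, young plants having two leaves. Water level maintained; greenhouse, 13–15 days; visual 0–100 control rating.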

[6] = system: barnyardgrass; experiment: Test C flooded paddy test; type: in vivo, Echinochloa crus-galli; conditions: Flood
In short: as §2

[7] = system: morningglory; experiment: Test A pre-/postemergence herbicide test; type: in vivo, Ipomoea spp.
In short: as §1

[8] = system: corn; experiment: Test A pre-/postemergence herbicide test; type: in vivo, Zea mays
In short: as §1

[9] = system: velvetleaf; experiment: Test A pre-/postemergence herbicide test; type: in vivo, Abutilon theophrasti
In short: as §1

[10] = system: rice; experiment: Test C flooded paddy test; type: in vivo, Oryza sativa; conditions: Flood
In short: as §2

[11] = system: wheat; experiment: Test A pre-/postemergence herbicide test; type: in vivo, Triticum aestivum
In short: as §1

[12] = system: ducksalad; experiment: Test B flooded paddy test; type: in vivo, Heteranthera limosa; conditions: 250 g ai/ha, Flood; scale of 0 to 100 where 0 is no effect and 100 is complete control
In short: as §3

[13] = system: sedge, umbrella; experiment: Test B flooded paddy test; type: in vivo, Cyperus difformis; conditions: 250 g ai/ha, Flood; scale of 0 to 100 where 0 is no effect and 100 is complete control
In short: as §3

[14] = system: sedge, umbrella; experiment: Test C flooded paddy test; type: in vivo, Cyperus difformis; conditions: Flood
In short: as §2

[15] = system: barnyardgrass; experiment: Test A pre-/postemergence herbicide test; type: in vivo, Echinochloa crus-galli
In short: as §1

[16] = system: rice; experiment: Test B flooded paddy test; type: in vivo, Oryza sativa; conditions: 250 g ai/ha, Flood; scale of 0 to 100 where 0 is no effect and 100 is complete control
In short: as §3

[17] = system: blackgrass; experiment: Test A postemergence herbicide test; type: in vivo, Alopecurus myosuroides
In short: (§4)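 Injury was rated visually about 10 days after treatment on a 0 (no effect) to 100 (complete control) scale, compared with untreated plants. Test chemicals were sprayed postemergence onto greenhouse plants 2–10 cm high at one to two leaves, grown in a loam–sand blend.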

[18] = system: kochia; experiment: Test A pre-/postemergence herbicide test; type: in vivo, Kochia scoparia
In short: as §1

[19] = system: galium; experiment: Test A postemergence herbicide test; type: in vivo, Galium aparine
In short: as §4

[20] = system: ryegrass, Italian; experiment: Test A pre-/postemergence herbicide test; type: in vivo, Lolium multiflorum
In short: as §1

[21] = system: ragweed; experiment: Test A pre-/postemergence herbicide test; type: in vivo, Ambrosia elatior
In short: as §1

[22] = Postemergence, 125 g ai/ha, 0 to 100 scale, 0 no effect, 100 complete control
[23] = Postemergence, 500 g ai/ha, 0 to 100 scale (0 no effect, 100 complete control)
[24] = Preemergence, 125 g ai/ha, visual rating on 0 to 100 scale (0 no effect, 100 complete control)
[25] = preemergence, 500 g ai/ha, 0 to 100 scale
[26] = 125 g ai/ha, scale of 0 to 100 where 0 is no effect and 100 is complete control, 13 to 15 days
[27] = Postemergence, 125 g ai/ha, visual rating on 0 to 100 scale (0 no effect, 100 complete control), approx. 10 days
[28] = Preemergence, 125 g ai/ha, 0 to 100 scale where 0 is no effect and 100 is complete control
[29] = preemergence, 500 g ai/ha, 0 to 100 scale, 0 is no effect and 100 is complete control
[30] = 250 g ai/ha, scale of 0 to 100 where 0 is no effect and 100 is complete control, 13 to 15 days
[31] = Postemergence, 125 g ai/ha, 0 to 100 scale, 0 is no effect, 100 is complete control
[32] = 125 g ai/ha, 0 to 100 scale, 0 is no effect, 100 is complete control
[33] = 500 g ai/ha, 0 to 100 scale (0 no effect, 100 complete control)

O=C1NCC(c2cccc(Cl)c2)C1C(=O)Nc1ccccc1F (racemic) [Compound 89]
Plant response rating, Pigweed [1, 22]: 0 | Plant response rating, Pigweed [1, 23]: 20 | Pigweed plant response rating [1, 24]: 0 | Plant response rating, Pigweed [1, 25]: 0 | Plant response rating, Ducksalad [2, 26]: 70 | Plant response rating, Ducksalad ([2]; 250 g ai/ha, scale 0 to 100): 85 | Plant response rating, Ducksalad ([2]; 500 g ai/ha, scale 0 to 100): 100 | Plant response rating, Ducksalad ([2]; 1000 g ai/ha, scale 0 to 100): 100 | Plant response rating, Crabgrass, Large [3, 22]: 60 | Plant response rating, Crabgrass, Large [3, 23]: 80 | Crabgrass, Large plant response rating [3, 24]: 80 | Plant response rating, Crabgrass, Large [3, 25]: 90 | Plant response rating, Foxtail, Giant [4, 22]: 60 | Plant response rating, Foxtail, Giant [4, 23]: 80 | Foxtail, Giant plant response rating [4, 24]: 80 | Plant response rating, Foxtail, Giant [4, 25]: 90 | Plant response rating, Barnyardgrass [5]: 60 | Plant response rating, Barnyardgrass [6, 26]: 20 | Plant response rating, Barnyardgrass ([6]; 250 g ai/ha, scale 0 to 100): 20 | Plant response rating, Barnyardgrass ([6]; 500 g ai/ha, scale 0 to 100): 40 | Plant response rating, Barnyardgrass ([6]; 1000 g ai/ha, scale 0 to 100): 75 | Plant response rating, Morningglory [7, 22]: 0 | Plant response rating, Morningglory [7, 23]: 10 | Morningglory plant response rating [7, 24]: 0 | Plant response rating, Morningglory [7, 25]: 0 | Plant response rating, Corn [8, 22]: 0 | Plant response rating, Corn [8, 23]: 30 | Corn plant response rating [8, 24]: 0 | Plant response rating, Corn [8, 25]: 0 | Plant response rating, Velvetleaf [9, 22]: 0 | Plant response rating, Velvetleaf [9, 23]: 0 | Velvetleaf plant response rating [9, 24]: 0 | Plant response rating, Velvetleaf [9, 25]: 0 | Plant response rating, Rice [10, 26]: 0 | Plant response rating, Rice ([10]; 250 g ai/ha, scale 0 to 100): 0 | Plant response rating, Rice ([10]; 500 g ai/ha, scale 0 to 100): 0 | Plant response rating, Rice ([10]; 1000 g ai/ha, scale 0 to 100): 0 | Plant response rating, Wheat [11, 22]: 0 | Plant response rating, Wheat [11, 23]: 20 | Wheat plant response rating [11, 24]: 0 | Plant response rating, Wheat [11, 25]: 10 | Plant response rating, Ducksalad [12]: 70 | Plant response rating, Sedge, Umbrella [13]: 0 | Plant response rating, Sedge, Umbrella [14, 26]: 0 | Plant response rating, Sedge, Umbrella ([14]; 250 g ai/ha, scale 0 to 100): 0 | Plant response rating, Sedge, Umbrella ([14]; 500 g ai/ha, scale 0 to 100): 0 | Plant response rating, Sedge, Umbrella ([14]; 1000 g ai/ha, scale 0 to 100): 0 | Plant response rating, Barnyardgrass [15, 22]: 60 | Plant response rating, Barnyardgrass [15, 23]: 80 | Barnyardgrass plant response rating [15, 24]: 60 | Plant response rating, Barnyardgrass ([15]; preemergence, 500 g ai/ha, 0 to 100 scale (0 no effect, 100 complete control)): 80 | Plant response rating, Rice [16]: 20

CN1CC(c2ccc(F)cc2)C(C(=O)Nc2ccccc2F)C1=O (stereo not drawn) [Compound 270]
Plant response rating, Pigweed [1, 27]: 40 | Plant response rating, Pigweed [1, 23]: 0 | Plant response rating, Pigweed [1, 28]: 0 | Plant response rating, Pigweed [1, 29]: 20 | Plant response rating, Ducksalad [2, 26]: 75 | Plant response rating, Ducksalad [2, 30]: 85 | Plant response rating, Ducksalad ([2]; 500 g ai/ha, scale 0 to 100): 100 | Plant response rating, Ducksalad ([2]; 1000 g ai/ha, scale 0 to 100): 100 | Plant response rating, Foxtail, Giant [4, 31]: 60 | Plant response rating, Foxtail, Giant [4, 23]: 90 | Plant response rating, Foxtail, Giant [4, 28]: 80 | Plant response rating, Foxtail, Giant [4, 29]: 90 | Plant response rating, Barnyardgrass [6, 26]: 10 | Plant response rating, Barnyardgrass [6, 30]: 30 | Plant response rating, Barnyardgrass ([6]; 500 g ai/ha, scale 0 to 100): 60 | Plant response rating, Barnyardgrass ([6]; 1000 g ai/ha, scale 0 to 100): 80 | Plant response rating, Morningglory [7, 27]: 0 | Plant response rating, Corn [8, 31]: 0 | Plant response rating, Corn [8, 23]: 30 | Plant response rating, Blackgrass [17, 32]: 0 | Plant response rating, Blackgrass [17, 33]: 20 | Plant response rating, Rice [10, 26]: 0 | Plant response rating, Rice [10, 30]: 0 | Plant response rating, Rice ([10]; 500 g ai/ha, scale 0 to 100): 0 | Plant response rating, Rice ([10]; 1000 g ai/ha, scale 0 to 100): 0 | Plant response rating, Kochia [18, 31]: 0 | Plant response rating, Kochia [18, 23]: 30 | Plant response rating, Kochia [18, 28]: 0 | Plant response rating, Kochia [18, 29]: 80 | Plant response rating, Wheat [11, 27]: 0 | Plant response rating, Wheat [11, 23]: 20 | Plant response rating, Sedge, Umbrella [14, 26]: 0 | Plant response rating, Sedge, Umbrella [14, 30]: 0 | Plant response rating, Sedge, Umbrella ([14]; 500 g ai/ha, scale 0 to 100): 0 | Plant response rating, Sedge, Umbrella ([14]; 1000 g ai/ha, scale 0 to 100): 0 | Plant response rating, Barnyardgrass [15, 31]: 90 | Plant response rating, Barnyardgrass [15, 23]: 90 | Plant response rating, Barnyardgrass [15, 28]: 60 | Plant response rating, Barnyardgrass [15, 29]: 90 | Plant response rating, Galium [19, 32]: 20 | Plant response rating, Galium [19, 33]: 50 | Plant response rating, Ryegrass, Italian [20, 23]: 20 | Plant response rating, Ryegrass, Italian [20, 28]: 0 | Plant response rating, Ryegrass, Italian [20, 29]: 0 | Plant response rating, Ragweed [21, 23]: 0 | Plant response rating, Ragweed [21, 28]: 0 | Plant response rating, Ragweed [21, 29]: 20
